{"source": "paper PMC8969299", "about": "(Chemical Engineering Journal, 2022)", "key": {"[1]": {"tested_on": "SARS-CoV-2", "experiment": "Fluorescence"}, "[2]": {"tested_on": "influenza A virus", "experiment": "Fluorescence response of COVID19-PEB to influenza A virus", "design": "species or system influenza A (pH1N1) virus (Human/Canada/2009)", "conditions": "COVID 19-PEB 10 nmol in 100 µL; 25 °C; n = 3; Fig. 4d"}, "[3]": {"experiment": "Fluorescence lifetime of COVID19-PEB before/after annealing", "format": "physicochemical", "conditions": "before annealing; Oligo-Cy3 and Oligo-BHQ2 fixed at 10 nmol; Fig. 3c"}, "[4]": {"tested_on": "SARS-CoV-2 and its variants"}, "[5]": {"tested_on": "HCoV-OC43", "experiment": "Fluorescence response of COVID19-PEB to HCoV-OC43", "design": "species or system Human coronavirus OC43 (HCoV-OC43)", "conditions": "COVID 19-PEB 10 nmol in 100 µL; 25 °C; n = 3; Fig. 4f"}, "[6]": {"tested_on": "SARS-CoV-2", "experiment": "Detection of SARS-CoV-2 in clinical patient samples using COVID19-PEB"}, "[7]": {"molecular_target": "SARS-CoV-2 S protein RBD (Severe acute respiratory syndrome coronavirus 2, UniProt P0DTC2)"}, "[8]": {"tested_on": "SARS-CoV-2", "experiment": "Fluorescence detection of SARS-CoV-2 in biofluids", "conditions": "10% nasal fluid and 10% saliva; n = 3; Fig. 5"}, "[9]": {"tested_on": "influenza B virus", "experiment": "Fluorescence response of COVID19-PEB to influenza B virus", "design": "species or system influenza B viruses (Victoria Brisbane/20/2009)", "conditions": "COVID 19-PEB 10 nmol in 100 µL; 25 °C; n = 3; Fig. 4e"}}}
{"substance": "Cy3-TTTTGGGGG- I EEQA KTFL DKFN HEAE DLFY QSSL ASWK-CCCCCAAAA-BHQ2 [COVID19-PEB]", "values": [{"measurement": "detection time, SARS-CoV-2", "setting": "[1]; COVID19-PEB", "result": "≤ 3", "unit": "h"}, {"measurement": "detection time, SARS-CoV-2 (shortest stated)", "setting": "[1]; COVID19-PEB", "result": "≤ 50", "unit": "min"}, {"measurement": "time within which intensity change could be measured, SARS-CoV-2", "setting": "[1]; COVID 19-PEB 10 nmol, Fig. S4", "result": "≤ 1", "unit": "h"}, {"measurement": "detection limit, SARS-CoV-2", "setting": "[1]; COVID19-PEB fluorescence, 100 µL test", "result": "4 × 10^3 plaque-forming unit/test"}, {"measurement": "change in fluorescence signal, influenza A virus", "setting": "[2]", "result": "no change in fluorescence signal was observed"}, {"measurement": "fluorescence lifetime", "setting": "[3]", "result": "2.23 ± 0.02", "unit": "ns"}, {"measurement": "discrimination among genetic mutations in SARS-CoV-2", "setting": "[4]", "result": "does not effectively discriminate among the genetic mutations in SARS-CoV-2"}, {"measurement": "detection of SARS-CoV-2 and its variants", "setting": "[4]; Fig. S5", "result": "useful for sensitive and rapid detection of SARS-CoV-2 and its variants"}, {"measurement": "change in fluorescence signal, HCoV-OC43", "setting": "[5]", "result": "no change in fluorescence signal was observed"}, {"measurement": "detection of virus in PCR-confirmed patient samples", "setting": "[6]", "result": "accurately detected the virus"}, {"measurement": "fluorescence intensity with increasing concentration of S proteins", "setting": "[7]", "result": "gradually increased with the increasing concentration of the S proteins"}, {"measurement": "time within which intensity change could be measured, S protein RBD", "setting": "[7]", "result": "≤ 1", "unit": "h"}, {"measurement": "detection of SARS-CoV-2 in biofluid", "setting": "[8]", "result": "efficiently detected SARS-CoV-2 in the biofluid, with high sensitivity"}, {"measurement": "change in fluorescence signal, influenza B virus", "setting": "[9]", "result": "no change in fluorescence signal was observed"}]}
